Test results: US6737406B1, “Cryptic peptides and method for their identification” (Circassia, Ltd., priority 1996, dated 2004)

Columns and labels:
[1] = tested on: T lymphocytes; assay: Inhibition of T cell proliferation to FC1P peptides, tritiated thymidine incorporation (Example 5); type: cell-based; conditions: added at 10^−6M or 10^−9M; freshly isolated T lymphocytes cultured with FC1P
Protocol: Freshly isolated T lymphocytes were cultured in vitro with concentrations of FC1P peptides, previously determined as being optimal for the induction of proliferative and/or other responses in these cells. To certain of the culture wells were added, the glucocorticosteroid Dexamethazone or fluticazone, these were added to cultures at dilutions of 10^−6M or 10^−9M. After culture, cells were labelled with tritiated thymidine to enable quantification of DNA synthesis and thus cellular proliferation.

[2] = tested on: volunteer cat-allergic asthmatic; assay: Intradermal injection of FC1P into a volunteer cat-allergic asthmatic, lung function (Example 4); type: in vivo, human; conditions: 40 μg FC1P intradermally into each forearm
Protocol: 40 μg of highly purified FC1P peptides was injected intradermally into each forearm of a volunteer cat-allergic asthmatic. […] The drop in FEV1 was reversed by the administration of β2 agonist and inhaled corticosteroid at 8 hours. The results of this are shown diagrammatically in FIG. 6.

[3] = tested on: peripheral blood mononuclear cells; assay: Primary proliferative response of freshly isolated PBMC to FC1P (Example 3); type: cell-based, human; conditions: 10^5 cells per well, 6 days, cat allergic asthmatics (CAA) compared with non-cat allergic asthmatics (NCA)
Protocol: Freshly isolated peripheral blood mononuclear cells were cultured at 10^5 cells per well for 6 days prior to labelling with tritiated thymidine for measurement of cellular proliferation.

Row | Compound | inhibition of T cell proliferation to FC1P peptides (tritiated thymidine incorporation) [1] | late-phase asthmatic reaction ([2]; cat-allergic asthmatic) | time of late-phase asthmatic reaction after administration ([2]; cat-allergic asthmatic) | Lung function (quantified as FEV1) ([2]; over the next several hours) | primary proliferative responses (cellular proliferation, tritiated thymidine) [3]
1 | C[C@@H]1C[C@H]2[C@@H]3CCC4=CC(=O)C=C[C@]4(C)[C@@]3(F)[C@@H](O)C[C@]2(C)[C@@]1(O)C(=O)CO [dexamethazone] | inhibition of T cell proliferation | – | – | – | –
2 | C[C@@H]1C[C@H]2[C@@H]3C[C@H](F)C4=CC(=O)C=C[C@]4(C)[C@@]3(F)[C@@H](O)C[C@]2(C)[C@@]1(O)C(=O)SCF [fluticazone] | inhibition of T cell proliferation | – | – | – | –
3 | FC1P: three synthetic peptides derived from the sequence of Fel d I, collectively FC1P (SEQ ID NO:23, 5 and 24) (chain 1 LFLTGTPDEYVEQVAQY; chain 2 EQVAQYKALPVVLENA; chain 3 KALPVVLENARILKNCV; listed as Felis domesticus) | – | induced an isolated late-phase asrimatic reaction | approximately three | fell and remained low | greater primary proliferative responses
